Results: paper PMC4494927, “Discovery of a small molecule targeting SET-PP2A interaction to overcome BCR-ABLT315I mutation of chronic myeloid leukemia” (Oncotarget, 2015)

Tests used:
Assay in all cases: In vitro kinase assay (Kinase-Glo / ADP-Glo)
Type in all cases: biochemical
AKT2 = AKT2 (Homo sapiens, UniProt P31751); conditions: TGI1002 1 µM; means of two independent experiments; read-out: Inhibitory effect (%)
Experimental: (§1) All kinase reactions were carried out in 384-well plates. After addition of the compounds, kinase and ATP-substrate were added to the assay plates successively, the assay plates were centrifuged at 1,000 x g for 1 min and incubated for 1 h at 30 °C. Then, Kinase-Glo Plus or ADP-Glo reagent was added to each well. In Kinase-Glo assay, after addition of the reagent for 20 min, the luminescence was measured on an EnVision Multilabel Plate Reader (Perkin-Elmer). In ADP-Glo assay, after addition of the reagent for 40 min, Kinase Detection Reagent was added and incubated for another 30 min at 27 °C, and then the luminescence was measured. Kinase inhibition rates were calculated per manufacturer's instructions.

AKT3 = AKT3 (Homo sapiens, UniProt Q9Y243); conditions: TGI1002 1 µM; means of two independent experiments; read-out: Inhibitory effect (%)
Experimental: as §1

Aurora A = Aurora A (Homo sapiens, UniProt O14965); conditions: TGI1002 1 µM; means of two independent experiments; read-out: Inhibitory effect (%)
Experimental: as §1

BLK = BLK (Homo sapiens, UniProt P51451); conditions: TGI1002 1 µM; means of two independent experiments; read-out: Inhibitory effect (%)
Experimental: as §1

BRAF = BRAF (Homo sapiens, UniProt P15056); conditions: TGI1002 1 µM; means of two independent experiments; read-out: Inhibitory effect (%)
Experimental: as §1

BRAF(v599E) = BRAF(v599E) (Homo sapiens, UniProt P15056, V600E); conditions: TGI1002 1 µM; means of two independent experiments; read-out: Inhibitory effect (%)
Experimental: as §1

CAMK1 = CAMK1 (Homo sapiens, UniProt Q14012); conditions: TGI1002 1 µM; means of two independent experiments; read-out: Inhibitory effect (%)
Experimental: as §1

CDK1/CyclinB = CDK1/CyclinB (Homo sapiens, UniProt P06493); conditions: TGI1002 1 µM; means of two independent experiments; read-out: Inhibitory effect (%)
Experimental: as §1

CDK2/CyclinA2 = CDK2/CyclinA2 (Homo sapiens, UniProt P24941); conditions: TGI1002 1 µM; means of two independent experiments; read-out: Inhibitory effect (%)
Experimental: as §1

CDK4/CyclinD1 = CDK4/CyclinD1 (Homo sapiens, UniProt P11802); conditions: TGI1002 1 µM; means of two independent experiments; read-out: Inhibitory effect (%)
Experimental: as §1

CHK1 = CHK1 (Homo sapiens, UniProt O14757); conditions: TGI1002 1 µM; means of two independent experiments; read-out: Inhibitory effect (%)
Experimental: as §1

ERK1 = ERK1 (Homo sapiens, UniProt P27361); conditions: TGI1002 1 µM; means of two independent experiments; read-out: Inhibitory effect (%)
Experimental: as §1

ERK2(MAPK1) = ERK2(MAPK1) (Homo sapiens, UniProt P28482); conditions: TGI1002 1 µM; means of two independent experiments; read-out: Inhibitory effect (%)
Experimental: as §1

EphB2 = EphB2 (Homo sapiens, UniProt P29323)
Experimental: as §1

FGR = FGR (Homo sapiens, UniProt P09769); conditions: TGI1002 1 µM; means of two independent experiments; read-out: Inhibitory effect (%)
Experimental: as §1

FLT1(VEGFR1) = FLT1(VEGFR1) (Homo sapiens, UniProt P17948); conditions: TGI1002 1 µM; means of two independent experiments; read-out: Inhibitory effect (%)
Experimental: as §1

GSK3α = GSK3α (Homo sapiens, UniProt P49840); conditions: TGI1002 1 µM; means of two independent experiments; read-out: Inhibitory effect (%)
Experimental: as §1

HER2 = HER2 (Homo sapiens, UniProt P04626); conditions: TGI1002 1 µM; means of two independent experiments; read-out: Inhibitory effect (%)
Experimental: as §1

InsR = InsR (Homo sapiens, UniProt P06213); conditions: TGI1002 1 µM; means of two independent experiments; read-out: Inhibitory effect (%)
Experimental: as §1

JNK1 = JNK1 (Homo sapiens, UniProt P45983); conditions: TGI1002 1 µM; means of two independent experiments; read-out: Inhibitory effect (%)
Experimental: as §1

LCK = LCK (Homo sapiens, UniProt P06239); conditions: TGI1002 1 µM; means of two independent experiments; read-out: Inhibitory effect (%)
Experimental: as §1

PDGFRα = PDGFRα (Homo sapiens, UniProt P16234)
Experimental: as §1

PI3Kβ = PI3Kβ (Homo sapiens, UniProt P42338); conditions: TGI1002 1 µM; means of two independent experiments; read-out: Inhibitory effect (%)
Experimental: as §1

PI3Kγ = PI3Kγ (Homo sapiens, UniProt P48736); conditions: TGI1002 1 µM; means of two independent experiments; read-out: Inhibitory effect (%)
Experimental: as §1

PI3Kδ = PI3Kδ (Homo sapiens, UniProt O00329); conditions: TGI1002 1 µM; means of two independent experiments; read-out: Inhibitory effect (%)
Experimental: as §1

PKAcα = PKAcα (Homo sapiens, UniProt P17612); conditions: TGI1002 1 µM; means of two independent experiments; read-out: Inhibitory effect (%)
Experimental: as §1

PKAcβ = PKAcβ (Homo sapiens, UniProt P22694); conditions: TGI1002 1 µM; means of two independent experiments; read-out: Inhibitory effect (%)
Experimental: as §1

PKCα = PKCα (Homo sapiens, UniProt P17252); conditions: TGI1002 1 µM; means of two independent experiments; read-out: Inhibitory effect (%)
Experimental: as §1

PKCγ = PKCγ (Homo sapiens, UniProt P05129); conditions: TGI1002 1 µM; means of two independent experiments; read-out: Inhibitory effect (%)
Experimental: as §1

PLK2 = PLK2 (Homo sapiens, UniProt Q9NYY3); conditions: TGI1002 1 µM; means of two independent experiments; read-out: Inhibitory effect (%)
Experimental: as §1

PLK3 = PLK3 (Homo sapiens, UniProt Q9H4B4); conditions: TGI1002 1 µM; means of two independent experiments; read-out: Inhibitory effect (%)
Experimental: as §1

RAF1 = RAF1 (Homo sapiens, UniProt P04049); conditions: TGI1002 1 µM; means of two independent experiments; read-out: Inhibitory effect (%)
Experimental: as §1

RET = RET (Homo sapiens, UniProt P07949); conditions: TGI1002 1 µM; means of two independent experiments; read-out: Inhibitory effect (%)
Experimental: as §1

RON = RON (Homo sapiens, UniProt Q04912); conditions: TGI1002 1 µM; means of two independent experiments; read-out: Inhibitory effect (%)
Experimental: as §1

SRC = SRC (Homo sapiens, UniProt P12931); conditions: TGI1002 1 µM; means of two independent experiments; read-out: Inhibitory effect (%)
Experimental: as §1

TrkA = TrkA (Homo sapiens, UniProt P04629); conditions: TGI1002 1 µM; means of two independent experiments; read-out: Inhibitory effect (%)
Experimental: as §1

TrkB = TrkB (Homo sapiens, UniProt Q16620); conditions: TGI1002 1 µM; means of two independent experiments; read-out: Inhibitory effect (%)
Experimental: as §1

c-KIT = c-KIT (Homo sapiens, UniProt P10721); conditions: TGI1002 1 µM; means of two independent experiments; read-out: Inhibitory effect (%)
Experimental: as §1

c-KIT(V654A) = c-KIT(V654A) (Homo sapiens, UniProt P10721, V654A); conditions: TGI1002 1 µM; means of two independent experiments; read-out: Inhibitory effect (%)
Experimental: as §1

p38α = p38α (Homo sapiens, UniProt Q16539); conditions: TGI1002 1 µM; means of two independent experiments; read-out: Inhibitory effect (%)
Experimental: as §1

[1] = TGI1002 1 µM, means of two independent experiments, read-out: Inhibitory effect (%)

Chain of EphB2 (P29323 19-1055, species assumed): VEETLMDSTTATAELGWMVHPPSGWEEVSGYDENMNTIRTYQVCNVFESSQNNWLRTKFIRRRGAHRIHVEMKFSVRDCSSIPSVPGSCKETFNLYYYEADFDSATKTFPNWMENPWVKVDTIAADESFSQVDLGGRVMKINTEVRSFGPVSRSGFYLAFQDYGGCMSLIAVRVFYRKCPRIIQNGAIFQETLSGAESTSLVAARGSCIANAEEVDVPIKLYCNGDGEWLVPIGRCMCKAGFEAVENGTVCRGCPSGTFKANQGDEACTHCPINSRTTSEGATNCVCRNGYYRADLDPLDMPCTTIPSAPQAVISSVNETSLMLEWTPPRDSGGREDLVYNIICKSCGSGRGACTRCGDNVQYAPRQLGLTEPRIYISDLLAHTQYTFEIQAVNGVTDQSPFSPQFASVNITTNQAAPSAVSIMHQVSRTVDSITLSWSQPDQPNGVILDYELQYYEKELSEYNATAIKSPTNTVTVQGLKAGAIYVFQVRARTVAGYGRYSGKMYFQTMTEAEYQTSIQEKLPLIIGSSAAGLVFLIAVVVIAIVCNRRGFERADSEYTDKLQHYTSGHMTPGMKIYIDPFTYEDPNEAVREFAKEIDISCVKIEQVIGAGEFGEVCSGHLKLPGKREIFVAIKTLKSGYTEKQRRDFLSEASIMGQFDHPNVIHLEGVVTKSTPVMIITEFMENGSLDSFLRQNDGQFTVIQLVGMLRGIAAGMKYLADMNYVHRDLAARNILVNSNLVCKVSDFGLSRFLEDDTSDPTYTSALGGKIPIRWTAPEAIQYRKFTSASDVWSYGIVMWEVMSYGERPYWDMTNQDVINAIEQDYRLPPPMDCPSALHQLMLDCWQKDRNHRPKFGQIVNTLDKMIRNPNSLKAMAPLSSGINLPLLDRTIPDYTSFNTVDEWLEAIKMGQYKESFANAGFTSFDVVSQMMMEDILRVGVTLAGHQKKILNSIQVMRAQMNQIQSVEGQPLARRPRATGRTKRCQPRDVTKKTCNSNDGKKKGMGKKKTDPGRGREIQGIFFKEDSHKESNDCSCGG
Chain of PDGFRα (P16234 24-1089, species assumed): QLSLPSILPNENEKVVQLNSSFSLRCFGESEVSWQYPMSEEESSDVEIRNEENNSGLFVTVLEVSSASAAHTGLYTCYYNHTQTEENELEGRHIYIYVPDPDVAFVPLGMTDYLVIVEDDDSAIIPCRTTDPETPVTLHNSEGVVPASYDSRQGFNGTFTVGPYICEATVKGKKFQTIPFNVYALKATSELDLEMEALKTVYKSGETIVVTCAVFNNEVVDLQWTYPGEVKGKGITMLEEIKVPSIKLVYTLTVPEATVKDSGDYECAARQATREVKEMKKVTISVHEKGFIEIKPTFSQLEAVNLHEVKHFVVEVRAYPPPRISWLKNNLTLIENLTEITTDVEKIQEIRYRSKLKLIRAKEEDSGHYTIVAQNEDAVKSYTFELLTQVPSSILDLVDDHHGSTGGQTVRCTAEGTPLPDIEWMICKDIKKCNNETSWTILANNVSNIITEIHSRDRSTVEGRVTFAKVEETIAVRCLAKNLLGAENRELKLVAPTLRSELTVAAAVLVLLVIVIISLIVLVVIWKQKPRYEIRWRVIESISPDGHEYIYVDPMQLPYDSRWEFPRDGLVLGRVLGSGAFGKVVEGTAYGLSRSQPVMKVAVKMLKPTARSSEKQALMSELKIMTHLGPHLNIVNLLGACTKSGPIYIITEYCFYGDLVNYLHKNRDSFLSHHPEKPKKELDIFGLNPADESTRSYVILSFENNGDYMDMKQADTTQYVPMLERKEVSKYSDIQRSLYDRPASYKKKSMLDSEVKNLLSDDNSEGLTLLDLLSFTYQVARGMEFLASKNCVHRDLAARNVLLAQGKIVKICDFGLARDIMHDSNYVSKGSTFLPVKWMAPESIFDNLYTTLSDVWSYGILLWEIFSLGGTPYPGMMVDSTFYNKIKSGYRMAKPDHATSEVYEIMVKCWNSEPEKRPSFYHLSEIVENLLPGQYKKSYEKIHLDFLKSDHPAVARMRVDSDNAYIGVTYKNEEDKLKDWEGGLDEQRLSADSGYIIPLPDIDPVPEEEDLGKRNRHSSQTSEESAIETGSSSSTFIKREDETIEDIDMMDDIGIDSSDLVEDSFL
Chain of PLK2 (Q9NYY3 whole entry): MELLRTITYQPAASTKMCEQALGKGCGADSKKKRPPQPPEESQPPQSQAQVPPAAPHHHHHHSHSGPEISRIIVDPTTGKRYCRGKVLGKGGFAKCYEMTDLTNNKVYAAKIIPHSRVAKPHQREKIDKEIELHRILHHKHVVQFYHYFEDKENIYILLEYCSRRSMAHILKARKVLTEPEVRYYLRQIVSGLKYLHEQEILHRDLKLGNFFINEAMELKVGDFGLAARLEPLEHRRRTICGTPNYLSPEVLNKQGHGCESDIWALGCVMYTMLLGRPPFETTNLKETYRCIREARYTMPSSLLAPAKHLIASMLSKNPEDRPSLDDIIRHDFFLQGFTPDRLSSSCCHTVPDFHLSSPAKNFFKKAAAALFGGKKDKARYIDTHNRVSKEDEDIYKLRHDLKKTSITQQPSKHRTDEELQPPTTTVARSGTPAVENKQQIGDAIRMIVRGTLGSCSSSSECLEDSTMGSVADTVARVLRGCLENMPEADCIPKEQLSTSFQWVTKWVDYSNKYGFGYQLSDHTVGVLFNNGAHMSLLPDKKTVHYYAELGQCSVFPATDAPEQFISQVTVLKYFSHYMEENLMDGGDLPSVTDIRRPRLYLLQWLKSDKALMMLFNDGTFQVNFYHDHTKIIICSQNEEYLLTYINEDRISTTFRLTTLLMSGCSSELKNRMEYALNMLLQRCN
Chain of SRC (P12931 whole entry): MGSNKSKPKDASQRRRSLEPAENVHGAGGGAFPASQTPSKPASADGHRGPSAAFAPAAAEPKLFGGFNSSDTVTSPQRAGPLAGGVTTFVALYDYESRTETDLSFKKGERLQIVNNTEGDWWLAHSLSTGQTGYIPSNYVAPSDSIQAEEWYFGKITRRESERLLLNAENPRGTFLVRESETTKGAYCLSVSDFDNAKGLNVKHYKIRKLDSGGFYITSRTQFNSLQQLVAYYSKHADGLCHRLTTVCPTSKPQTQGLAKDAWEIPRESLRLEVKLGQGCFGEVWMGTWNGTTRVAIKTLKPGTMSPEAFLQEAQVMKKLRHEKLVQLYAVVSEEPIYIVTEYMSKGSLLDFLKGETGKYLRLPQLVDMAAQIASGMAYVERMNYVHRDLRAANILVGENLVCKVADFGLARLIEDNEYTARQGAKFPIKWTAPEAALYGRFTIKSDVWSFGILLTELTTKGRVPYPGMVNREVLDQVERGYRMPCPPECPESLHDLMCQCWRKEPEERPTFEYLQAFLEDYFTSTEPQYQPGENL
Chain of BRAF(v599E) (P15056 whole entry V600E): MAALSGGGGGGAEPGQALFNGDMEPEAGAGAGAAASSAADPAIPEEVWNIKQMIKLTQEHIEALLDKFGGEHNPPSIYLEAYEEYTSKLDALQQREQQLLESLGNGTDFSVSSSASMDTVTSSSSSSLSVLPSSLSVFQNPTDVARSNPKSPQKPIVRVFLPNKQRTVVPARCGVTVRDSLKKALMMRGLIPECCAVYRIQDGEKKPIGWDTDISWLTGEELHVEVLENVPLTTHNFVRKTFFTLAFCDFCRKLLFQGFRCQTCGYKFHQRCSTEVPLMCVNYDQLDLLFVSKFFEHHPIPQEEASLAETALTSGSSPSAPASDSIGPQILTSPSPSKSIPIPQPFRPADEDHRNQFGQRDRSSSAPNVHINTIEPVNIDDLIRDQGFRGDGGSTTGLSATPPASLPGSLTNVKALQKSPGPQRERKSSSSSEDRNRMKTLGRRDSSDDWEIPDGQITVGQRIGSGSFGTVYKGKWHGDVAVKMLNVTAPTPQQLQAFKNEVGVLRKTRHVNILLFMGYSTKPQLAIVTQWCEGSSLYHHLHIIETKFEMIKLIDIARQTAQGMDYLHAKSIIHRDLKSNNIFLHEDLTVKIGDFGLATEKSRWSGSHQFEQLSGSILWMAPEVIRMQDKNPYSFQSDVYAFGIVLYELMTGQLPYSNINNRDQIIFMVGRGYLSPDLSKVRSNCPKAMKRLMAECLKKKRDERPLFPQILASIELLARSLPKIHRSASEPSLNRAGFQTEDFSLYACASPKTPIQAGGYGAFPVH
Chain of TrkB (Q16620 32-822): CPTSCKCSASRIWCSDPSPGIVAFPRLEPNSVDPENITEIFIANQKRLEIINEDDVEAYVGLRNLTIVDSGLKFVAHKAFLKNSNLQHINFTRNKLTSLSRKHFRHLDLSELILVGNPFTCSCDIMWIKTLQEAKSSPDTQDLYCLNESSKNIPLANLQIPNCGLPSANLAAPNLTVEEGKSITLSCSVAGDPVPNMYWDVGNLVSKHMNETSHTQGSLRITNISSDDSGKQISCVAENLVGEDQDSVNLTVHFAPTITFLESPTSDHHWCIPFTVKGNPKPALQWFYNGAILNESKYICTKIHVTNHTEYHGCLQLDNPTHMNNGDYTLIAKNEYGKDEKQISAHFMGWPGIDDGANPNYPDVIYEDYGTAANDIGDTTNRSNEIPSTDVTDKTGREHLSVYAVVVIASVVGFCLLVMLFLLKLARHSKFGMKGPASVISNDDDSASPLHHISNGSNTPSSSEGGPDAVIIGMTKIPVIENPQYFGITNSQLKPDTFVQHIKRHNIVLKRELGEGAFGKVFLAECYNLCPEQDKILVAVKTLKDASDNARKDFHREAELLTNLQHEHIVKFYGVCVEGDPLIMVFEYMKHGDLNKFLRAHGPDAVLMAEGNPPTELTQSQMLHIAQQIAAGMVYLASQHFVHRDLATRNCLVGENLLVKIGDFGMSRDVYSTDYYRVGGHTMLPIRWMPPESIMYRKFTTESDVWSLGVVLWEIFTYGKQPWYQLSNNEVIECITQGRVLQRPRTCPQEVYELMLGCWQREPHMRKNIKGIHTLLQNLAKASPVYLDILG
Chain of BRAF (P15056 whole entry): as the sequence (P15056 whole entry V600E) above, with E600V counted along it

Cc1ccc(NC(=O)c2cccc(CN3CCN(C)CC3)c2)cc1Oc1nccc(-c2cccnc2)n1.Cl [TGI1002, N-(4-methyl-3-((4-(pyridin-3-yl)-pyrimidin-2-yl)oxy)phenyl)-3-((4-methylpiperazin-1-yl)methyl)benzamide hydrochloride]
inhibition at 1 µM (AKT2): 4.72%
inhibition at 1 µM (AKT3): 3.62%
inhibition at 1 µM (Aurora A): 24.6%
inhibition at 1 µM (BLK): 3.39%
inhibition at 1 µM (BRAF): 2.3%
inhibition at 1 µM (BRAF(v599E)): 3.61%
inhibition at 1 µM (CAMK1): 4.93%
inhibition at 1 µM (CDK1/CyclinB): 3.24%
inhibition at 1 µM (CDK2/CyclinA2): 1.54%
inhibition at 1 µM (CDK4/CyclinD1): 7.54%
inhibition at 1 µM (CHK1): 3.61%
inhibition at 1 µM (ERK1): 0.01%
inhibition at 1 µM (ERK2(MAPK1)): 0%
IC50 (EphB2; EphB2 kinase activity): 1270 nM
inhibition at 1 µM (EphB2; [1]): 46.7%
inhibition at 1 µM (FGR): 7.53%
inhibition at 1 µM (FLT1(VEGFR1)): 1.97%
inhibition at 1 µM (GSK3α): 2.6%
inhibition at 1 µM (HER2): 7.88%
inhibition at 1 µM (InsR): 3.7%
inhibition at 1 µM (JNK1): 0.2%
inhibition at 1 µM (LCK): 5.82%
IC50 (PDGFRα; PDGFRα kinase activity): 3.28 µM
inhibition at 1 µM (PDGFRα; [1]): 43.5%
inhibition at 1 µM (PI3Kβ): 0%
inhibition at 1 µM (PI3Kγ): 2.65%
inhibition at 1 µM (PI3Kδ): 0.71%
inhibition at 1 µM (PKAcα): 5.96%
inhibition at 1 µM (PKAcβ): 6.5%
inhibition at 1 µM (PKCα): 5.57%
inhibition at 1 µM (PKCγ): 0.79%
inhibition at 1 µM (PLK2): 3.52%
inhibition at 1 µM (PLK3): 4.71%
inhibition at 1 µM (RAF1): 5.37%
inhibition at 1 µM (RET): 12.2%
inhibition at 1 µM (RON): 0.14%
inhibition at 1 µM (SRC): 1.09%
inhibition at 1 µM (TrkA): 3.11%
inhibition at 1 µM (TrkB): 5.58%
inhibition at 1 µM (c-KIT): 15.2%
inhibition at 1 µM (c-KIT(V654A)): 11.7%
inhibition at 1 µM (p38α): 2.17%
